Experimental data reported in PubChem BioAssay AID256 (DTP/NCI, 2004).
Where “and” joins values, the source holds several entries; their conditions need not be identical. Equal values may be shown once. Toxic doses and inconclusive results are not listed.

Tested on: CD2F1 mice, L1210 leukemia ip, survival T/C
Assay: NCI In Vivo Anticancer Drug Screen. Data for tumor model L1210 Leukemia (intraperitoneal) in CD2F1 (CDF1) mice
Conditions: endpoint: mean survival time, higher = longer survival
Method in brief: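 Antitumor effect is scored in animals hosting a serially transplanted tumor. Values compare compound-dosed animals against vehicle-only controls as a simple quotient.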

Nc1ccc(S(=O)(=O)c2ccc(N)c(S(N)(=O)=O)c2)cc1
T/C (dose: 100.0 mg/kg/injection, schedule: Q01DX009 (ip), vehicle: saline with Tween-80): 92 % of control
T/C (dose: 200.0 mg/kg/injection, schedule: Q01DX009 (ip), vehicle: saline with Tween-80): 91 % of control
T/C (dose: 400.0 mg/kg/injection, schedule: Q01DX009 (ip), vehicle: saline with Tween-80): 100 % of control

COc1cc(OC)c(/C=C/c2cc[n+](C)c3ccccc23)c(OC)c1
T/C (dose: 1.56 mg/kg/injection, schedule: Q01DX009 (ip), vehicle: saline): 106 % of control
T/C (dose: 1.56 mg/kg/injection, schedule: Q04DX002 (ip), vehicle: saline): 100 % of control
T/C (dose: 3.13 mg/kg/injection, schedule: Q01DX009 (ip), vehicle: saline): 109 % of control
T/C (dose: 3.13 mg/kg/injection, schedule: Q04DX002 (ip), vehicle: saline): 98 % of control
T/C (dose: 6.25 mg/kg/injection, schedule: Q04DX002 (ip), vehicle: saline): 88 % of control and 91 % of control

CCCCCCN=C(N)NC(=O)OC
T/C (dose: 6.25 mg/kg/injection, schedule: Q01DX009 (ip), vehicle: saline with Tween-80): 87 % of control
T/C (dose: 12.5 mg/kg/injection, schedule: Q01DX009 (ip), vehicle: saline with Tween-80): 100 % of control
T/C (dose: 25.0 mg/kg/injection, schedule: Q01DX009 (ip), vehicle: saline with Tween-80): 100 % of control

Oc1cc(O)c2c(c1)OC(c1ccc(O)c(O)c1)C(OC1(c3cc(O)c(O)c(O)c3)Oc3cc(O)cc(O)c3C(O)C1O)C2 (stereo not drawn)
T/C (dose: 100.0 mg/kg/injection, schedule: Q04DX003 (ip), vehicle: saline): 109 % of control
T/C (dose: 200.0 mg/kg/injection, schedule: Q04DX003 (ip), vehicle: saline): 95 % of control
T/C (dose: 400.0 mg/kg/injection, schedule: Q04DX003 (ip), vehicle: saline): 107 % of control

CC(=O)C(CCCCCCCCCCC(C(C)=O)C(C)=O)C(C)=O
T/C (dose: 100.0 mg/kg/injection, schedule: Q01DX001 (ip), vehicle: saline with Tween-80): 93 % of control
T/C (dose: 200.0 mg/kg/injection, schedule: Q01DX001 (ip), vehicle: saline with Tween-80): 101 % of control
T/C (dose: 400.0 mg/kg/injection, schedule: Q01DX001 (ip), vehicle: saline with Tween-80): 94 % of control

N=c1ccn2c(n1)OC1C(OP(=O)(O)O)C(CO)OC12 (stereo not drawn)
T/C (dose: 2.9 mg/kg/injection, schedule: Q01DX009 (ip), vehicle: saline): 101 % of control
T/C (dose: 4.4 mg/kg/injection, schedule: Q03HX024 (oral), vehicle: water): 117 % of control
T/C (dose: 5.8 mg/kg/injection, schedule: Q01DX009 (ip), vehicle: saline): 119 % of control
T/C (dose: 8.0 mg/kg/injection, schedule: Q03HX008 (ip), vehicle: saline): 122 % of control
T/C (dose: 8.0 mg/kg/injection, schedule: Q03HX024 (ip), vehicle: saline): 177 % of control
T/C (dose: 8.7 mg/kg/injection, schedule: Q03HX024 (ip), vehicle: saline): 163 % of control
T/C (dose: 11.6 mg/kg/injection, schedule: Q01DX009 (oral), vehicle: water): 120 % of control
T/C (dose: 16.0 mg/kg/injection, schedule: Q03HX008 (oral), vehicle: saline): 120 % of control
T/C (dose: 16.0 mg/kg/injection, schedule: Q03HX024 (ip), vehicle: saline): 225 % of control
T/C (dose: 17.4 mg/kg/injection, schedule: Q03HX024 (ip), vehicle: saline): 217 % of control
T/C (dose: 17.4 mg/kg/injection, schedule: Q03HX024 (oral), vehicle: water): 163 % of control
T/C (dose: 23.2 mg/kg/injection, schedule: Q01DX009 (ip), vehicle: saline): 157 % of control
T/C (dose: 23.2 mg/kg/injection, schedule: Q01DX009 (oral), vehicle: water): 122 % of control
T/C (dose: 32.0 mg/kg/injection, schedule: Q01DX009 (ip), vehicle: saline): 159 % of control
T/C (dose: 32.0 mg/kg/injection, schedule: Q01DX009 (oral), vehicle: saline): 111 % of control
T/C (dose: 32.0 mg/kg/injection, schedule: Q03HX024 (ip), vehicle: saline): 283 % of control
T/C (dose: 32.0 mg/kg/injection, schedule: Q03HX024 (oral), vehicle: saline): 177 % of control
T/C (dose: 34.8 mg/kg/injection, schedule: Q03HX024 (ip), vehicle: saline): 229 % of control
T/C (dose: 34.8 mg/kg/injection, schedule: Q03HX024 (oral), vehicle: water): 193 % of control
T/C (dose: 46.4 mg/kg/injection, schedule: Q01DX009 (ip), vehicle: saline): 170 % of control
T/C (dose: 64.0 mg/kg/injection, schedule: Q01DX009 (ip), vehicle: saline): 169 % of control
T/C (dose: 64.0 mg/kg/injection, schedule: Q03HX024 (ip), vehicle: saline): 418 % of control
T/C (dose: 64.0 mg/kg/injection, schedule: Q03HX024 (oral), vehicle: saline): 231 % of control
T/C (dose: 69.6 mg/kg/injection, schedule: Q03HX024 (ip), vehicle: saline): 228 % of control
T/C (dose: 69.6 mg/kg/injection, schedule: Q03HX024 (oral), vehicle: water): 291 % of control
T/C (dose: 92.8 mg/kg/injection, schedule: Q01DX009 (ip), vehicle: saline): 195 % of control
T/C (dose: 92.8 mg/kg/injection, schedule: Q01DX009 (oral), vehicle: water): 153 % of control
T/C (dose: 128.0 mg/kg/injection, schedule: Q01DX001 (ip), vehicle: saline): 112 % of control
T/C (dose: 128.0 mg/kg/injection, schedule: Q01DX001 (oral), vehicle: saline): 104 % of control
T/C (dose: 128.0 mg/kg/injection, schedule: Q01DX009 (ip), vehicle: saline): 200 % of control
T/C (dose: 128.0 mg/kg/injection, schedule: Q01DX009 (oral), vehicle: saline): 166 % of control
T/C (dose: 128.0 mg/kg/injection, schedule: Q03HX008 (oral), vehicle: saline): 157 % of control
T/C (dose: 128.0 mg/kg/injection, schedule: Q03HX024 (oral), vehicle: saline): 231 % of control
T/C (dose: 128.0 mg/kg/injection, schedule: Q04DX003 (ip), vehicle: saline): 154 % of control
T/C (dose: 128.0 mg/kg/injection, schedule: Q04DX003 (oral), vehicle: saline): 111 % of control
T/C (dose: 139.2 mg/kg/injection, schedule: Q03HX024 (ip), vehicle: saline): 221 % of control
T/C (dose: 139.2 mg/kg/injection, schedule: Q03HX024 (oral), vehicle: water): 273 % of control
T/C (dose: 185.6 mg/kg/injection, schedule: Q01DX009 (oral), vehicle: water): 197 % of control
T/C (dose: 256.0 mg/kg/injection, schedule: Q01DX001 (ip), vehicle: saline): 122 % of control
T/C (dose: 256.0 mg/kg/injection, schedule: Q01DX001 (oral), vehicle: saline): 107 % of control
T/C (dose: 256.0 mg/kg/injection, schedule: Q01DX009 (oral), vehicle: saline): 201 % of control
T/C (dose: 256.0 mg/kg/injection, schedule: Q04DX003 (ip), vehicle: saline): 180 % of control
T/C (dose: 278.4 mg/kg/injection, schedule: Q03HX024 (ip), vehicle: saline): 86 % of control
T/C (dose: 371.2 mg/kg/injection, schedule: Q01DX009 (oral), vehicle: water): 174 % of control
T/C (dose: 512.0 mg/kg/injection, schedule: Q04DX003 (ip), vehicle: saline): 219 % of control
T/C (dose: 512.0 mg/kg/injection, schedule: Q04DX003 (oral), vehicle: saline): 173 % of control
T/C (dose: 1024.0 mg/kg/injection, schedule: Q01DX001 (ip), vehicle: saline): 154 % of control
T/C (dose: 1024.0 mg/kg/injection, schedule: Q04DX003 (ip), vehicle: saline): 359 % of control
T/C (dose: 1024.0 mg/kg/injection, schedule: Q04DX003 (oral), vehicle: saline): 220 % of control

CNC(=O)CCC(NC(=O)c1ccc(N(C)Cc2cnc3nc(N)nc(N)c3n2)cc1)C(=O)O (stereo not drawn)
T/C (dose: 1.0 mg/kg/injection, schedule: Q01DX009 (ip), vehicle: sodium bicarbonate): 103 % of control
T/C (dose: 10.0 mg/kg/injection, schedule: Q01DX009 (ip), vehicle: sodium bicarbonate): 113 % of control
T/C (dose: 25.0 mg/kg/injection, schedule: Q01DX009 (ip), vehicle: sodium bicarbonate): 121 % of control

COc1cc2cc3c4ccc(OC)c(OC)c4cc[n+]3c(C)c2cc1OC (tested in a mixture with another compound)
T/C (dose: 6.25 mg/kg/injection, schedule: Q01DX009 (ip), vehicle: other): 108 % of control
T/C (dose: 12.5 mg/kg/injection, schedule: Q01DX009 (ip), vehicle: other): 106 % of control
T/C (dose: 25.0 mg/kg/injection, schedule: Q01DX009 (ip), vehicle: other): 116 % of control
T/C (dose: 50.0 mg/kg/injection, schedule: Q01DX009 (ip), vehicle: other): 97 % of control

CN1CCN(c2ccccc2)CC1
T/C (dose: 100.0 mg/kg/injection, schedule: Q01DX001 (ip), vehicle: saline): 112 % of control

CC1(C)COC2(c3ccccc3)N1C(=C(Cl)Cl)OC(=O)C2(Cl)Cl (stereo not drawn)
T/C (dose: 75.0 mg/kg/injection, schedule: Q01DX001 (ip), vehicle: saline with Tween-80): 101 % of control
T/C (dose: 150.0 mg/kg/injection, schedule: Q01DX001 (ip), vehicle: saline with Tween-80): 90 % of control
T/C (dose: 300.0 mg/kg/injection, schedule: Q01DX001 (ip), vehicle: saline with Tween-80): 109 % of control

CC(C)(C)OC(=O)NC(CSC(c1ccccc1)(c1ccccc1)c1ccccc1)C(=O)O (stereo not drawn)
T/C (dose: 75.0 mg/kg/injection, schedule: Q01DX001 (ip), vehicle: saline): 93 % of control
